Measured values as given in patent EP2876105A1, “1-(CYCLOALKYL-CARBONYL)PROLINE DERIVATIVE” (Sumitomo Dainippon Pharma Co., Ltd., priority 2012, dated 2014).
Like-named read-outs stand apart in the source and are kept apart here.

What was measured:
[1] = Ester metabolism stabilization test: stabilization in human plasma test; type: in vitro ADME; details: 37°C, 30 minutes
Procedure: 198 µL of human plasma (manufactured by Cosmo Bio) was added to 2 µL of a DMSO solution containing 100 µmol/L test substance, and the obtained mixture was then incubated at 37°C for 30 minutes. After completion of the incubation, 600 µL of acetonitrile was added to the reaction solution, so that the metabolic reaction was terminated. The residual percentage of the test substance was measured using LC (LC-20A manufactured by Shimadzu Corporation) and -MS (API4000 manufactured by AB Sciex).

[2] = Ester metabolism stabilization test: human liver stabilization test; type: in vitro ADME; details: human liver S9 with NADPH, 37°C, 30 minutes
Procedure: A reaction solution prepared by mixing 5 µL of human liver S9 (manufactured by Xenotech, 20 mg/mL), 20 µL of 500 mmol/L Kpi (pH7.4), 40 µL of 5 mmol/L NADPH (manufactured by Oriental Yeast Co., Ltd.) aqueous solution, and 133 µL of ion exchange water was added to 2 µL of a DMSO solution containing 100 µmol/L test substance, and the thus obtained mixture was then incubated at 37°C for 30 minutes. After completion of the incubation, 600 µL of acetonitrile was added to the reaction solution, so that the metabolic reaction was terminated. The residual percentage of the test substance was measured using LC (LC-20A manufactured by Shimadzu Corporation) and -MS (API4000 manufactured by AB Sciex).

human FXIa = human FXIa (Homo sapiens, UniProt P03951); test: In vitro activated factor XI (FXIa) inhibition test; type: biochemical
Procedure: To the substrate, S-2366 (pyroGlu-Pro-Arg-pNA•HCl) was added to a final concentration of 300 µmol/L. After the reaction had progressed, the absorbance at OD 405 nm was measured. […]

[3] = 0.35 µg/mL human FXIa, substrate S-2366 300 µmol/L, 37°C, 10 minutes, OD 405 nm, read-out: FXIa inhibitory activity IC50

Chain of human FXIa (P03951 388-625 limits assumed): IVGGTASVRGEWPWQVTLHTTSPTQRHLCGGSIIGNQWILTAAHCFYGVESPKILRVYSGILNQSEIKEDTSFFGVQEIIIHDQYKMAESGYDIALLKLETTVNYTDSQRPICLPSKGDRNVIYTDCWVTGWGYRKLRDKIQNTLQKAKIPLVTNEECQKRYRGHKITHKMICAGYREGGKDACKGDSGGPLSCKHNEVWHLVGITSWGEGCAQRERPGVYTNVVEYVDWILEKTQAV
Chain of human FXIa (P03951 19-387 partner limits assumed): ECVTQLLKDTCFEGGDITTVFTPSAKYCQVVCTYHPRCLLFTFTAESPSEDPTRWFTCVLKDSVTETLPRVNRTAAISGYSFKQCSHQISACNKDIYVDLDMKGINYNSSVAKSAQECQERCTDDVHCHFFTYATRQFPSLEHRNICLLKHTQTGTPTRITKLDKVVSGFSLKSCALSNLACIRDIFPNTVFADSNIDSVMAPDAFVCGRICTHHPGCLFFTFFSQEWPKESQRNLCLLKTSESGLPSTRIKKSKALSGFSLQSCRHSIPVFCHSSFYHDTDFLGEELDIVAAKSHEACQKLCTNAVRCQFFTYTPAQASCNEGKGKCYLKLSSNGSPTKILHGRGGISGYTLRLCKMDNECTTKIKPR

Row | Compound | Residual percentage (%) Human plasma [1] [%] | Residual percentage (%) Human liver S9 [2] [%] | IC50 (human FXIa) [µM] | IC50 (human FXIa; [3]) [µM]
1 | CC(C)OC(=O)OC(C)OC(=O)c1cc2cc(NC(=O)[C@@H]3[C@H](C4CCCCC4)CCN3C(=O)[C@H]3CC[C@H]([C@H](N)CF)CC3)ccc2[nH]1 (stereo partly shown) [compound 128] | 82 | 47 | – | –
2 | N[C@H](CF)[C@H]1CC[C@H](C(=O)N2CC[C@@H](C3CCCCC3)[C@H]2C(=O)Nc2ccc3oc(C(=O)OCC4CCOCC4)cc3c2)CC1 [compound 141] | 94 | 17 | 3.45 | –
3 | Cc1oc(=O)oc1COC(=O)c1cc2cc(NC(=O)[C@@H]3[C@@H](c4ccccc4)CCN3C(=O)[C@H]3CC[C@H]([C@H](N)CF)CC3)ccc2[nH]1 [compound 171] | <1 | 18 | – | 0.3
4 | COC1CCC([C@@H]2CCN(C(=O)[C@H]3CC[C@H]([C@H](N)CF)CC3)[C@@H]2C(=O)Nc2ccc3oc(C(=O)OCC(C)C)cc3c2)CC1 (stereo partly shown) [compound 201] | 85 | 45 | – | 4.1
5 | (1R)-1-([(1S)-1-(trans-4-{[(2S,3S)-3-Cyclohexyl-2-{[4-(1H-tetrazol-5-yl)phenyl]carbamoyl}pyrrolidin-1-yl]carbonyl}cyclohexyl)-2-fluoroethyl]carbamoyl}oxy)ethyl 2-methylpropanoate [Example 205] | 60 | 3.5 | – | –
